The record followed here is patent publication US8563542B2 (Cyclacel Limited, priority 2007, dated 2013).

One test deals with T1, AA (Homo sapiens, UniProt O14965).
T1 sequence (O14965 1-403): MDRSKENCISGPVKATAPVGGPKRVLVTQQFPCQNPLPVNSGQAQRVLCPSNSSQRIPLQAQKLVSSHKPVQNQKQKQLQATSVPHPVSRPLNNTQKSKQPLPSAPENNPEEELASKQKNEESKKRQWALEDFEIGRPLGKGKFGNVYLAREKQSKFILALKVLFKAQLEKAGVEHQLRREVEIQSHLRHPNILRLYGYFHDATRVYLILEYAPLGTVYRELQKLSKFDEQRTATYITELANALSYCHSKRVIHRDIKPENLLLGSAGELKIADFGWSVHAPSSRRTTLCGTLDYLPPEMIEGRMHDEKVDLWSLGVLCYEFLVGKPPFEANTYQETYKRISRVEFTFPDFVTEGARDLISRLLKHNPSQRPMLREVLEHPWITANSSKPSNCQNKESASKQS
Nature of the test: AA IC50 (Table 1; no method given). The format is biochemical. The note with it: Table 2, AurA IC50; class symbols; read-out: AurA IC50.

For another test, the target named is PLK1 (Homo sapiens, UniProt P53350). Description: PLK1 protein kinase assay (CDC25C phosphorylation, [γ-32P]-ATP). The format is biochemical. The note with it: Table 2, PLK1 IC50; class symbols; read-out: PLK1 IC50.
PLK1, sequence (P53350 whole entry): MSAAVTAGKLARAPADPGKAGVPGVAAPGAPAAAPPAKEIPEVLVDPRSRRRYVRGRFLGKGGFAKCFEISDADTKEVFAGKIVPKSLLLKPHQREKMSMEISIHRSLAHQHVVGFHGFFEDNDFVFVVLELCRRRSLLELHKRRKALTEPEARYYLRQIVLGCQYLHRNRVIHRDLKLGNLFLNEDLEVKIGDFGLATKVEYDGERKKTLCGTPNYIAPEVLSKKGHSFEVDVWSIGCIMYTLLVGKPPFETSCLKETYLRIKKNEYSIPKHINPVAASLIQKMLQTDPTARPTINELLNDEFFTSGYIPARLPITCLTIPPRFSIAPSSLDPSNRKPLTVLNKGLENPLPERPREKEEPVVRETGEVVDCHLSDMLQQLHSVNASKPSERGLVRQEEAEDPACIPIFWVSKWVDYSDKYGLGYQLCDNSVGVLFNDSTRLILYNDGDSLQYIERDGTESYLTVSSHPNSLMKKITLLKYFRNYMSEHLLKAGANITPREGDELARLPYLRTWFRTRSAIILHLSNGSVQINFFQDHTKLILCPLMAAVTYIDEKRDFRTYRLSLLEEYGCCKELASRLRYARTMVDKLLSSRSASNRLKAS

Take `CN1C(=O)CCN(C2CCCC2)c2nc(Nc3cccc(S(N)(=O)=O)c3)ncc21` [compound 53, 3-(9-Cyclopentyl-5-methyl-6-oxo-6,7,8,9-tetrahydro-5H-pyrimido[4,5-b][1,4]diazepin-2-ylamino)-benzenesulfonamide]: the IC50 at AA and on PLK1 was less than 1 µM throughout.

For the molecule `CN1C(=O)CCN(C2CCCC2)c2nc(Nc3ccc(C(=O)O)cc3)ncc21` [compound 54, 4-(9-Cyclopentyl-5-methyl-6-oxo-6,7,8,9-tetrahydro-5H-pyrimido[4,5-b][1,4]diazepin-2-ylamino)-benzoic acid], the half-maximal inhibitory concentration (IC50) on AA and on PLK1 was less than 0.1 µM throughout.

In the case of `CN1C(=O)CCN(C2CCCC2)c2nc(Nc3ccc(S(C)(=O)=O)cc3)ncc21` [compound 55, 9-Cyclopentyl-2-(4-methanesulfonyl-phenylamino)-5-methyl-5,7,8,9-tetrahydro-pyrimido[4,5-b][1,4]diazepin-6-one], the IC50 (in general, the point on the concentration scale where inhibition reaches its midpoint) is less than 0.1 µM on AA and less than 10 µM at PLK1.

`CN1C(=O)CCN(C2CCCC2)c2nc(Nc3cccc(C(=O)O)c3)ncc21` [compound 56, 3-(9-Cyclopentyl-5-methyl-6-oxo-6,7,8,9-tetrahydro-5H-pyrimido[4,5-b][1,4]diazepin-2-ylamino)-benzoic acid]: the IC50 on AA and at PLK1 was less than 1 µM in each case.

For the molecule `CN1CCC(NC(=O)c2cccc(Nc3ncc4c(n3)N(C3CCCC3)CCC(=O)N4C)c2)CC1` [compound 57, 3-(9-Cyclopentyl-5-methyl-6-oxo-6,7,8,9-tetrahydro-5H-pyrimido[4,5-b][1,4]diazepin-2-ylamino)-N-(1-methyl-piperidin-4-yl)-benzamide], the IC50 at AA was less than 1 µM; on PLK1, less than 10 µM.

As to `COc1cc(Nc2ncc3c(n2)N(C2CCCC2)CCC(=O)N3C)ccc1C(=O)NC1CCN(C)CC1` [compound 58, 4-(9-Cyclopentyl-5-methyl-6-oxo-6,7,8,9-tetrahydro-5H-pyrimido[4,5-b][1,4]diazepin-2-ylamino)-2-methoxy-N-(1-methyl-piperidin-4-yl)-benzamide], the IC50 on AA is less than 0.1 µM; at PLK1 it was less than 1 µM.

For the molecule `CN1CCC(NS(=O)(=O)c2ccc(Nc3ncc4c(n3)N(C3CCCC3)CCC(=O)N4C)cc2)CC1` [compound 61, 4-(9-Cyclopentyl-5-methyl-6-oxo-6,7,8,9-tetrahydro-5H-pyrimido[4,5-b][1,4]diazepin-2-ylamino)-N-(1-methyl-piperidin-4-yl)-benzenesulfonamide], the IC50 at AA was less than 1 µM; on PLK1, less than 10 µM.

As to `CN1C(=O)CCN(C2CCCC2)c2nc(Nc3ccc(S(N)(=O)=O)cc3)ncc21` [compound 63, 4-(9-Cyclopentyl-5-methyl-6-oxo-6,7,8,9-tetrahydro-5H-pyrimido[4,5-b][1,4]diazepin-2-ylamino)-benzenesulfonamide], the figures for the IC50 at AA and on PLK1 were less than 0.1 µM and less than 10 µM, respectively.

For `CN1C(=O)CCN(C2CCCC2)c2nc(Nc3ccccc3)ncc21` [compound 70, 9-Cyclopentyl-5-methyl-2-phenylamino-5,7,8,9-tetrahydro-pyrimido[4,5-b][1,4]diazepin-6-one], the results for the IC50 on AA and at PLK1 were less than 1 µM and less than 10 µM, respectively.

As to `CCC1CN(C2CCCC2)c2nc(Nc3ccc4c(c3)CS(=O)(=O)C4)ncc2N(C)C1=O` (centres unmarked) [compound 74, 9-Cyclopentyl-2-(2,2-dioxo-2,3-dihydro-1H-2lambda*6*-benzo[c]thiophen-5-ylamino)-7-ethyl-5-methyl-5,7,8,9-tetrahydro-pyrimido[4,5-b][1,4]diazepin-6-one], the half-inhibitory concentration (IC50) at AA is less than 0.1 µM; at PLK1, less than 1 µM.

As to `CC1CN(C2CCCC2)c2nc(Nc3ccc4c(c3)CS(=O)(=O)C4)ncc2N(C)C1=O` (centres unmarked) [compound 76, 9-Cyclopentyl-2-(2,2-dioxo-2,3-dihydro-1H-2lambda*6*-benzo[c]thiophen-5-ylamino)-5,7-dimethyl-5,7,8,9-tetrahydro-pyrimido[4,5-b][1,4]diazepin-6-one], the IC50 on AA was less than 0.1 µM; at PLK1 it was less than 1 µM.

Consider `CN1C(=O)C(C)(C)CN(C2CCCC2)c2nc(Nc3ccc4c(c3)CS(=O)(=O)C4)ncc21` [compound 77, 9-Cyclopentyl-2-(2,2-dioxo-2,3-dihydro-1H-2lambda*6*-benzo[c]thiophen-5-ylamino)-5,7,7-trimethyl-5,7,8,9-tetrahydro-pyrimido[4,5-b][1,4]diazepin-6-one], for which the IC50 at AA and on PLK1 was less than 1 µM in each case.

Consider `CN1C(=O)C2(CC2)CN(C2CCCC2)c2nc(Nc3ccc4c(c3)CS(=O)(=O)C4)ncc21` [compound 78, (9-Cyclopentyl-2-(2,2-dioxo-2,3-dihydro-1H-2lambda*6*-benzo[c]thiophen-5-ylamino)5-methyl-6-oxo-6,7,8,9-tetrahydro-5H-spiro[pyrimido[4,5-b][1,4]diazepin-3,1′-cyclopropane]], for which the IC50 at AA was less than 0.1 µM; on PLK1 it was less than 1 µM.

Regarding `CN1C(=O)CCN(C2CCCC2)c2nc(Nc3ccc(C(N)=O)cc3)ncc21` [compound 83, 4-(9-Cyclopentyl-5-methyl-6-oxo-6,7,8,9-tetrahydro-5H-pyrimido[4,5-b][1,4]diazepin-2-ylamino)-benzamide], the IC50 on AA is less than 0.1 µM; on PLK1, less than 1 µM.

Consider `CN1C(=O)C2(CC2)CN(C2CCCC2)c2nc(Nc3ccc(C(=O)O)cc3)ncc21` [compound 84, 4-(9-Cyclopentyl-5-methyl-6-oxo-6,7,8,9-tetrahydro-5H-spiro[pyrimido[4,5-b][1,4]diazepin-3,1′-cyclopropane]-2-ylamino)-benzoic acid], for which the IC50 was less than 10 µM at AA and less than 1 µM at PLK1.

Consider `CN(C)C(=O)c1ccc(Nc2ncc3c(n2)N(C2CCCC2)CCC(=O)N3C)cc1` [compound 85, 4-(9-Cyclopentyl-5-methyl-6-oxo-6,7,8,9-tetrahydro-5H-pyrimido[4,5-b][1,4]diazepin-2-ylamino)-N,N-dimethyl-benzamide], for which the IC50 on AA is less than 0.1 µM; on PLK1, less than 10 µM.

For `CC(=O)NCc1ccc(Nc2ncc3c(n2)N(C2CCCC2)CCC(=O)N3C)cc1` [compound 86, N-[4-(9-Cyclopentyl-5-methyl-6-oxo-6,7,8,9-tetrahydro-5H-pyrimido[4,5-b][1,4]diazepin-2-ylamino)-benzyl]-acetamide], the concentration for half-maximal inhibition (IC50) on AA is less than 0.1 µM; at PLK1 it was less than 10 µM.

On to `CNC(=O)c1ccc(Nc2ncc3c(n2)N(C2CCCC2)CCC(=O)N3C)c(OC)c1` [compound 87, 4-(9-Cyclopentyl-5-methyl-6-oxo-6,7,8,9-tetrahydro-5H-pyrimido[4,5-b][1,4]diazepin-2-ylamino)-3-methoxy-N-methyl-benzamide], for which the half-maximal inhibitory concentration (IC50) at AA is less than 10 µM; on PLK1, less than 0.1 µM.

For `COc1cc(C(=O)N(C)C)ccc1Nc1ncc2c(n1)N(C1CCCC1)CCC(=O)N2C` [compound 88, 4-(9-Cyclopentyl-5-methyl-6-oxo-6,7,8,9-tetrahydro-5H-pyrimido[4,5-b][1,4]diazepin-2-ylamino)-3-methoxy-N,N-dimethyl-benzamide], the IC50 on AA was less than 10 µM; at PLK1 it was less than 1 µM.

Turning to `COc1cc(C(N)=O)ccc1Nc1ncc2c(n1)N(C1CCCC1)CCC(=O)N2C` [compound 89, 4-(9-Cyclopentyl-5-methyl-6-oxo-6,7,8,9-tetrahydro-5H-pyrimido[4,5-b][1,4]diazepin-2-ylamino)-3-methoxy-benzamide], the IC50 on AA is less than 10 µM; at PLK1, less than 0.1 µM.

As for `CC(=O)NCc1cccc(Nc2ncc3c(n2)N(C2CCCC2)CCC(=O)N3C)c1` [compound 90, N-[3-(9-Cyclopentyl-5-methyl-6-oxo-6,7,8,9-tetrahydro-5H-pyrimido[4,5-b][1,4]diazepin-2-ylamino)-benzyl]-acetamide], the values for the IC50 on AA and at PLK1 were less than 1 µM and less than 10 µM, respectively.

Regarding `CN1C(=O)CCN(C2CCCC2)c2nc(Nc3cccc(CN)c3)ncc21` [compound 91, 2-(3-Aminomethyl-phenylamino)-9-cyclopentyl-5-methyl-5,7,8,9-tetrahydro-pyrimido[4,5-b][1,4]diazepin-6-one], the IC50 on AA is less than 1 µM; at PLK1 it was less than 10 µM.

Regarding `CN1C(=O)CCN(C2CCCC2)c2nc(Nc3ccc(S(=O)(=O)NCc4ccccc4)cc3)ncc21` [compound 93, N-Benzyl-4-(9-cyclopentyl-5-methyl-6-oxo-6,7,8,9-tetrahydro-5H-pyrimido[4,5-b][1,4]diazepin-2-ylamino)-benzenesulfonamide], the values for the IC50 at AA and at PLK1 were less than 0.1 µM and less than 10 µM, respectively.

In the case of `CNS(=O)(=O)c1ccc(Nc2ncc3c(n2)N(C2CCCC2)CCC(=O)N3C)cc1` [compound 96, 4-(9-Cyclopentyl-5-methyl-6-oxo-6,7,8,9-tetrahydro-5H-pyrimido[4,5-b][1,4]diazepin-2-ylamino)-N-methyl-benzenesulfonamide], the IC50 on AA was less than 0.1 µM; at PLK1, less than 10 µM.

With `CC(=O)N(C)S(=O)(=O)c1ccc(Nc2ncc3c(n2)N(C2CCCC2)CCC(=O)N3C)cc1` [compound 97, N-Acetyl-4-(9-cyclopentyl-5-methyl-6-oxo-6,7,8,9-tetrahydro-5H-pyrimido[4,5-b][1,4]diazepin-2-ylamino)-N-methyl-benzenesulfonamide], the IC50 at AA was less than 0.1 µM; on PLK1 it was less than 10 µM.
